Here are results for 33 compounds from patent US8394809B2, “Phenoxy-substituted pyrimidines as opioid receptor modulators” (priority 2009, dated 2013).

The target in one assay is T1, mu opioid receptor (Rattus norvegicus, UniProt P33535).
T1 construct: the forebrains were homogenized in Tris buffer in a Teflon®-glass homogenizer; from tissue; host or cells: forebrain of male Wistar rats, particulate membrane preparation
The experiment in a line: Rat brain mu opioid receptor binding assay. The conditions noted are these: rat forebrain membranes, ~0.8 nM [3H]DAMGO; read-out: μ-binding Ki. On the procedure:
(§1) Procedure: Male, Wistar rats (150-250 g, VAF, Charles River, Kingston, N.Y.) were killed by CO2, and their brains were removed and placed immediately in ice cold Tris HCl buffer (50 mM, pH 7.4). The forebrains were separated from the remainder of the brain by a coronal transection, beginning dorsally at the colliculi and passing ventrally through the midbrain-pontine junction. After dissection, the forebrains were homogenized in Tris buffer in a Teflon®-glass homogenizer. The homogenate was diluted to a concentration of 1 g of forebrain tissue per 80 mL Tris and centrifuged at 39,000×g for 10 min. The pellet was resuspended in the same volume of Tris buffer containing 5 mM MgCl2 with several brief pulses from a Polytron homogenizer. This particulate preparation was used for the mu opioid binding assays. Following incubation with the mu selective peptide ligand, ˜0.8 nM [^3H]DAMGO, at 25° C. for 2.5 h in a 96-well plate with total assay volume of 1 mL, the plate contents were filtered through Wallac filtermat B sheets on a Tomtec 96-well harvester. […] To each sample area 2×40 μL of Betaplate Scint scintillation fluid (LKB) was added and the radioactivity was quantifed on a LKB (Wallac) 1205 BetaPlate liquid scintillation counter.
(§2) Analysis: The data from the scintillation counter was used to calculate either the % inhibition compared to control binding (when only a single concentration of test compound was evaluated) or a Ki value (when a range of concentrations was tested). Percent inhibition was calculated as: [(total dpm−test compound dpm)/(total dpm-nonspecific dpm)]*100. Kd and Ki values were calculated using GraphPad PRISM data analysis program.

The target of assay [1] is T2, delta opioid receptor (Rattus norvegicus, UniProt P33533).
T2 construct: the forebrains were homogenized in Tris buffer in a Teflon®-glass homogenizer; from tissue; host or cells: forebrain of male Wistar rats, particulate membrane preparation
T2 sequence (P33533 whole entry): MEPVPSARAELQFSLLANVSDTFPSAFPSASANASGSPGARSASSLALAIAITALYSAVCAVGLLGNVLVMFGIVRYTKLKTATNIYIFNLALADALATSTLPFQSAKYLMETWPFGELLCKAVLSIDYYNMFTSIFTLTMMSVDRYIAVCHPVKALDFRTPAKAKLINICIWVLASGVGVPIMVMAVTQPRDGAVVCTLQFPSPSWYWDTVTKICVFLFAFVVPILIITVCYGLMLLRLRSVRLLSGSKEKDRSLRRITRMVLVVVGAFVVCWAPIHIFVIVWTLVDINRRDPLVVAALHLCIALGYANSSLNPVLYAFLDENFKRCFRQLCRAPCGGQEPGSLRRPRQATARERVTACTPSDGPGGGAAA
The experiment in a line: Rat brain delta opioid receptor binding assay. The following applies: rat forebrain membranes. Here is the method: as §1, with “delta” for “mu”, “ligand ˜4” for “ligand, ˜0.8”, “[^3H]DPDPE or 0.25 nM [^3H]naltrindole” for “[^3H]DAMGO,”, “total” for “total assay”, “2×50” for “2×40”, “quantified” for “quantifed”
as §2

The target in assay [2] is T3, delta opioid receptor (Mus musculus, UniProt P32300).
T3 construct: NG108-15 cell membranes were purchased from Applied Cell Sciences (Rockville, Md.); host or cells: NG108-15 cell membranes (purchased)
T3 sequence (P32300 whole entry): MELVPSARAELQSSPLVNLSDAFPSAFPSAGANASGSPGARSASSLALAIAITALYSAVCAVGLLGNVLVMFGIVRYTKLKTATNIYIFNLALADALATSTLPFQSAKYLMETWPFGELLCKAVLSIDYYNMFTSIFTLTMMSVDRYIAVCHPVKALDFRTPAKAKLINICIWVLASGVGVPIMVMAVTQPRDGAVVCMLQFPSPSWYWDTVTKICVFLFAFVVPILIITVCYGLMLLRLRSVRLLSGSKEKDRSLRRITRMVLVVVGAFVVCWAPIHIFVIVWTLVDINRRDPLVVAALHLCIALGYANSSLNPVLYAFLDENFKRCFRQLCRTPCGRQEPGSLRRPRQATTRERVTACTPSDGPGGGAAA
The experiment in a line: [35S]GTPγS binding assay in NG108-15 cell membranes (delta opioid functional assay). The class given is biochemical. The following applies: for GTPγS δ-Rel Efficacy @200 nM: 200 nM compound, relative to calculated max of SNC80 dose response. Here is the method:
Methods: NG108-15 cell membranes were purchased from Applied Cell Sciences (Rockville, Md.). 5 mg/mL of membrane protein was suspended in 10 mM TRIS-HCl pH 7.2, 2 mM EDTA, 10% sucrose. Membranes were maintained at 4-8° C. A 1 mL volume of membranes was added into 10 mL cold binding assay buffer. The assay buffer contained 50 mM Tris, pH 7.6, 5 mM MgCl2, 100 mM NaCl, 1 mM DTT and 1 mM EGTA. The membrane suspension was homogenized twice with a Polytron, and centrifuged at 3000 rpm for 10 min. The supernatant was then centrifuged at 18,000 rpm for 20 min. Ten mL assay buffer was added into the pellet containing tube. The pellet and buffer were mixed with a Polytron.
Incubation procedure: The pellet membranes (75 μg/mL) were preincubated with SPA (10 mg/mL) at 25° C. for 45 min in the assay buffer. […] 200 nM of receptor agonists was used to stimulate [^35S]-GTPγS binding. The basal binding was tested in the absence of agonists and non-specific binding was tested in the presence of 10 μM unlabeled GTPγS.
Data % of Basal=(stimulated−non specific)*100/(basal−non specific). Relative Efficacy of a compound at 200 nM=(% of Basal of test compound at 200 nM)/(Calculated Max of SNC80 dose response. Curve in prism).

Setting [3] is: 0.25 nM [3H]naltrindole, read-out: δ-binding (Naltrindole ligand) Ki.
Where [4] appears, read: ~4 nM [3H]DPDPE, read-out: δ-binding (DPDPE ligand) Ki.

Molecules are shown by their SMILES. pEC50, pKi: −log10 of the molar value. Like-named read-outs stand apart in the source and are kept apart here. A value given as a limit tells only on which side of the number the result lay.

T1 sequence (P33535 whole entry): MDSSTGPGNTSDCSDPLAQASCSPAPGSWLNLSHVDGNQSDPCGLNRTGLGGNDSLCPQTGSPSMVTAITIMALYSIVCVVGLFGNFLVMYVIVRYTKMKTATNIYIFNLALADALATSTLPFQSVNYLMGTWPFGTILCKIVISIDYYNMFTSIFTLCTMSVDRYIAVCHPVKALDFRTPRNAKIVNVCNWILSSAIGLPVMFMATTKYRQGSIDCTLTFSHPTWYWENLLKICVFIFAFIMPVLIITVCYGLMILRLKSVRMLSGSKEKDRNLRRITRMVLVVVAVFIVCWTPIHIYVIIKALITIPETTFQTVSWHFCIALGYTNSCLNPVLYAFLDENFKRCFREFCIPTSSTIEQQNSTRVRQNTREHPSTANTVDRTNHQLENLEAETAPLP

Usually pKi stands for the negative decadic logarithm of the Ki, by convention in mol/L. Take `COc1ccc(Oc2ncc(NC3CCN(Cc4ccccc4)C3)c(Oc3ccc(OC)cc3)n2)cc1` (racemic) [Cpd 27, (1-Benzyl-pyrrolidin-3-yl)-[2,4-bis-(4-methoxy-phenoxy)-pyrimidin-5-yl]-amine]: the pKi on mu opioid receptor is 5.45; at delta opioid receptor [1] (setting [3]) it was 5.99.
Turning to `COc1ccc(Oc2ncc(NCCC3CCCNC3)c(Oc3ccc(OC)cc3)n2)cc1` (racemic) [Cpd 34], the pKi is under 5.00 on mu opioid receptor and 5.95 on delta opioid receptor [1] (setting [4]).
For the compound `COc1ccc(Oc2ncc(NC(C)c3ccncc3)c(Oc3ccc(OC)cc3)n2)cc1` (racemic) [Cpd 40], the figures for the pKi on mu opioid receptor and on delta opioid receptor [1] (setting [3]) were under 5.00 and 5.36, respectively.
For `COc1ccc(Oc2ncc(NC[C@@H]3CCCN3C)c(Oc3ccc(OC)cc3)n2)cc1` [Cpd 9, [2,4-Bis-(4-methoxy-phenoxy)-pyrimidin-5-yl]-(1-methyl-pyrrolidin-2-(S)-ylmethyl)-amine], the pKi on mu opioid receptor is 5.03; on delta opioid receptor [1] (setting [3]), 6.94.
For `COc1ccc(Oc2ncc(NC3CCC(N)CC3)c(Oc3ccc(OC)cc3)n2)cc1` (stereo not shown) [Cpd 16], in that order: 5.41 and 6.34.
For the compound `Fc1ccc(Oc2ncc(NCC3CCCN3)c(Oc3ccc(F)cc3)n2)cc1` (stereo not shown) [Cpd 24], the values for the pKi on mu opioid receptor and at delta opioid receptor [1] (setting [4]) were under 5.00 and 6.40, respectively.
`COc1ccc(Oc2ncc(NCc3ccncc3)c(Oc3ccc(OC)cc3)n2)cc1` [Cpd 39]: the pKi is under 5.00 on mu opioid receptor and 5.45 on delta opioid receptor [1] (setting [3]).
For `COc1ccc(Oc2ncc(NCC3CNC3)c(Oc3ccc(OC)cc3)n2)cc1` [Cpd 13], in that order: under 5.00 and 6.62.
For `COc1ccc(Oc2ncc(NC3CCNCC3)c(Oc3ccc(OC)cc3)n2)cc1` [Cpd 12], in that order: 4.82 and 6.76.
As for `COc1ccc(Nc2ncc(NC[C@@H]3CCCN3)c(Oc3ccc(OC)cc3)n2)cc1` [Cpd 23, 4-(4-Methoxyphenoxy)-N^2-(4-methoxyphenyl)-N^6-pyrrolidin-2-(S)-ylmethyl-pyrimidine-2,5-diamine], the pKi at mu opioid receptor was under 5.00; on delta opioid receptor [1] (setting [4]) it was 6.44.
For the compound `COc1ccc(C=Cc2ncc(NC[C@@H]3CCCN3)c(Oc3ccc(OC)cc3)n2)cc1` [Cpd 19, {4-(4-Methoxyphenoxy)-2-[2-(4-methoxyphenyl)vinyl]-pyrimidin-5-yl}-pyrrolidin-2-(S)-ylmethylamine], the pKi on mu opioid receptor was 5.69; on delta opioid receptor [1] (setting [4]), 6.63.
On to `COc1ccc(Oc2ncc(NC[C@@H](N)CO)c(Oc3ccc(OC)cc3)n2)cc1` [Cpd 10], for which the pKi on mu opioid receptor was under 5.00; on delta opioid receptor [1] (setting [3]) it was 6.89.
For `COc1ccc(Oc2ncc(NCC3CCCNC3)c(Oc3ccc(OC)cc3)n2)cc1` (racemic) [Cpd 15], in that order: 5.49 and 6.53.
For `COc1ccc(Oc2ncc(NC3CC4CCC(C3)N4)c(Oc3ccc(OC)cc3)n2)cc1` (stereo not shown) [Cpd 11], in that order: 5.67 and 6.81.
Consider `COc1ccc(Oc2ncc(NCc3ncc[nH]3)c(Oc3ccc(OC)cc3)n2)cc1` [Cpd 42], for which the values for the pKi on mu opioid receptor and at delta opioid receptor [1] (setting [4]) were under 5.00 and 5.42, respectively.
For `COc1ccc(Oc2ncc(NCC3CNCCO3)c(Oc3ccc(OC)cc3)n2)cc1` (racemic) [Cpd 31], in that order: under 5.00 and 6.14.
In the case of `COc1ccc(Oc2nc(Nc3cccc(F)c3)ncc2NC[C@@H]2CCCN2)cc1` [Cpd 49, N^2-(3-Fluoro-phenyl)-4-(4-methoxy-phenoxy)-N^5-pyrrolidin-2-(S)-ylmethyl-pyrimidine-2,5-diamine], on delta opioid receptor [2], the “GTPγS δ-Rel Efficacy @200 nM” value was 0.216.
The term pEC50 denotes the EC50 on a negative log10 scale, so that one unit is a factor of ten. For `COc1ccc(Oc2nc(Oc3cccc(OC)c3)ncc2NC[C@@H]2CCCN2)cc1` [Cpd 52], on delta opioid receptor [2], the “GTPγS δ-opioid receptor Rel Efficacy” value turned out to be 0.935 and the “GTPγS δ-Rel Efficacy @200 nM” value is recorded as 0.624. The compound further showed a pEC50 on delta opioid receptor [2] (GTPγS δ-opioid receptor EC50) of 7.29.
Regarding `COc1ccc(Oc2nc(Oc3cccc(C#N)c3)ncc2NC[C@@H]2CCCN2)cc1` [Cpd 53], at delta opioid receptor [2], the “GTPγS δ-opioid receptor Rel Efficacy” value turned out to be 1.033 and the “GTPγS δ-Rel Efficacy @200 nM” value is 0.705. For the same compound, at delta opioid receptor [2] (read-out: GTPγS δ-opioid receptor EC50), the pEC50 is 7.28.
Turning to `COc1ccc(Oc2ncc(NCC3CCNCC3)c(Oc3ccc(OC)cc3)n2)cc1` [Cpd 17], the pKi at mu opioid receptor is 4.91; on delta opioid receptor [1] (setting [3]), 6.32.
For `COc1ccc(Oc2ncc(NC3CCCN(Cc4ccccc4)C3)c(Oc3ccc(OC)cc3)n2)cc1` (racemic) [Cpd 32], the pKi at mu opioid receptor was under 5.00; on delta opioid receptor [1] (setting [4]) it was 6.06.
For `COc1ccc(Oc2ncc(NCCC3CCNCC3)c(Oc3ccc(OC)cc3)n2)cc1` [Cpd 33], in that order: under 5.00 and 5.95.
For the compound `COc1ccc(Oc2ncc(CNC[C@@H]3CCCN3C)c(Oc3ccc(OC)cc3)n2)cc1` [Cpd 8], the results for the pKi at mu opioid receptor and at delta opioid receptor [1] (setting [3]) were 5.14 and 7.03, respectively.
With `COc1ccc(Oc2ncc(NC3CCN(C(C)=O)CC3)c(Oc3ccc(OC)cc3)n2)cc1` [Cpd 41], the pKi on mu opioid receptor was under 5.00; on delta opioid receptor [1] (setting [3]) it was 5.27.
In the case of `COc1ccc(Oc2ncc(NCc3nccs3)c(Oc3ccc(OC)cc3)n2)cc1` [Cpd 43], the pKi at mu opioid receptor was under 5.00; on delta opioid receptor [1] (setting [4]) it was 5.38.
`COc1ccc(Oc2ncc(NCc3ccc(-n4ccnc4)cc3)c(Oc3ccc(OC)cc3)n2)cc1` [Cpd 37, [2,4-Bis-(4-methoxy-phenoxy)-pyrimidin-5-yl]-(4-imidazol-1-yl-benzyl)-amine]: the pKi was under 5.00 on mu opioid receptor and 5.57 on delta opioid receptor [1] (setting [3]).
For `COc1ccc(Oc2ncc(NC[C@H](N)CO)c(Oc3ccc(OC)cc3)n2)cc1` [Cpd 21, 2-(S)-Amino-3-[2,4-bis-(4-methoxy-phenoxy)-pyrimidin-5-ylamino]propan-1-ol], the figures for the pKi at mu opioid receptor and at delta opioid receptor [1] (setting [4]) were under 5.00 and 6.46, respectively.
Regarding `CCN(CC)CCC(C)Nc1cnc(Oc2ccc(OC)cc2)nc1Oc1ccc(OC)cc1` (racemic) [Cpd 38], the pKi at mu opioid receptor is under 5.00; on delta opioid receptor [1] (setting [3]), 5.51.
Regarding `COc1ccc(Oc2nc([S+]([O-])c3ccc(OC)cc3)ncc2NC[C@@H]2CCCN2)cc1` (stereo partly drawn) [Cpd 20, [2-(4-Methoxybenzenesulfinyl)-4-(4-methoxyphenoxy)-pyrimidin-5-yl]-pyrrolidin-2-(S)-ylmethylamine], the pKi is under 5.00 at mu opioid receptor and 6.56 at delta opioid receptor [1] (setting [4]).
As for `COc1ccc(Oc2ncc(NCC3CCCCN3)c(Oc3ccc(OC)cc3)n2)cc1` (racemic) [Cpd 25], the negative-log Ki (pKi) on mu opioid receptor was 5.60; on delta opioid receptor [1] (setting [4]), 6.31.
For `COc1ccc(Oc2ncc(NCC3CCNC3)c(Oc3ccc(OC)cc3)n2)cc1` (racemic) [Cpd 22], in that order: 5.03 and 6.45.
`COc1ccc(Oc2ncc(NC3CCNC3)c(Oc3ccc(OC)cc3)n2)cc1` (racemic) [Cpd 36]: the pKi on mu opioid receptor is under 5.00; at delta opioid receptor [1] (setting [3]), 5.67.
For the compound `COc1ccc(Oc2ncc(NC3CNCCC3c3ccccc3)c(Oc3ccc(OC)cc3)n2)cc1` (stereo not shown) [Cpd 35], the pKi on mu opioid receptor was under 5.00; on delta opioid receptor [1] (setting [4]), 5.84.
